Assay results from patent publication US20110039721A1, “METHOD FOR PREDICTION ABOUT CARCINOGENICITY OF SUBSTANCE IN RODENT” (Chemicals Evaluation and Research Institute, priority 2007, published 2011).
Where two headings read alike, the source gives them in different places.

Key:
[1] = test system: mRNA expressed from the genes (A) to (D) in rat liver; experiment: Behavior of genes (mRNA expression level, oligo-DNA microarray) in rat liver after 28-day oral administration; format: in vivo; conditions: for Behavior of gene caused by administration of chemical substance, Gene No. 4846 / Behavior of gene caused by administration of chemical substance, Gene No. 2026 / Behavior of gene caused by administration of chemical substance, Gene No. 4218 / Behavior of gene caused by administration of chemical substance, Gene No. 6182 / Behavior of gene caused by administration of chemical substance, Gene No. 5600: gene group (A); for Behavior of gene caused by administration of chemical substance, Gene No. 4846: Unigene No. Rn.144554; for Behavior of gene caused by administration of chemical substance, Gene No. 2026 / Behavior of gene caused by administration of chemical substance, Gene No. 4218: Unigene No. Rn.167075; for Behavior of gene caused by administration of chemical substance, Gene No. 6182: Unigene No. Rn.5834; for Behavior of gene caused by administration of chemical substance, Gene No. 5600: Unigene No. Rn.9836; for Behavior of gene caused by administration of chemical substance, Gene No. 1494 / Behavior of gene caused by administration of chemical substance, Gene No. 2045 / Behavior of gene caused by administration of chemical substance, Gene No. 2203: gene group (B); for Behavior of gene caused by administration of chemical substance, Gene No. 1494: Unigene No. Rn.1430; for Behavior of gene caused by administration of chemical substance, Gene No. 2045: Unigene No. Rn.19329; for Behavior of gene caused by administration of chemical substance, Gene No. 2203: Unigene No. Rn.21240; for Behavior of gene caused by administration of chemical substance, Gene No. 533 / Behavior of gene caused by administration of chemical substance, Gene No. 725 / Behavior of gene caused by administration of chemical substance, Gene No. 1163 / Behavior of gene caused by administration of chemical substance, Gene No. 4973 / Behavior of gene caused by administration of chemical substance, Gene No. 4095 / Behavior of gene caused by administration of chemical substance, Gene No. 1334 / Behavior of gene caused by administration of chemical substance, Gene No. 6620 / Behavior of gene caused by administration of chemical substance, Gene No. 6303 / Behavior of gene caused by administration of chemical substance, Gene No. 5878 / Behavior of gene caused by administration of chemical substance, Gene No. 1131 / Behavior of gene caused by administration of chemical substance, Gene No. 1562 / Behavior of gene caused by administration of chemical substance, Gene No. 1741 / Behavior of gene caused by administration of chemical substance, Gene No. 893 / Behavior of gene caused by administration of chemical substance, Gene No. 6026 / Behavior of gene caused by administration of chemical substance, Gene No. 154 / Behavior of gene caused by administration of chemical substance, Gene No. 1993 / Behavior of gene caused by administration of chemical substance, Gene No. 813 / Behavior of gene caused by administration of chemical substance, Gene No. 2494 / Behavior of gene caused by administration of chemical substance, Gene No. 2546 / Behavior of gene caused by administration of chemical substance, Gene No. 3776 / Behavior of gene caused by administration of chemical substance, Gene No. 3929 / Behavior of gene caused by administration of chemical substance, Gene No. 1119 / Behavior of gene caused by administration of chemical substance, Gene No. 6742 / Behavior of gene caused by administration of chemical substance, Gene No. 5634: gene group (C); for Behavior of gene caused by administration of chemical substance, Gene No. 533: Unigene No. Rn.106184; for Behavior of gene caused by administration of chemical substance, Gene No. 725: Unigene No. Rn.108075; for Behavior of gene caused by administration of chemical substance, Gene No. 1163: Unigene No. Rn.11766; for Behavior of gene caused by administration of chemical substance, Gene No. 4973: Unigene No. Rn.118529; for Behavior of gene caused by administration of chemical substance, Gene No. 4095: Unigene No. Rn.119024; for Behavior of gene caused by administration of chemical substance, Gene No. 1334 / Behavior of gene caused by administration of chemical substance, Gene No. 6620: Unigene No. Rn.120914; for Behavior of gene caused by administration of chemical substance, Gene No. 6303: Unigene No. Rn.123063; for Behavior of gene caused by administration of chemical substance, Gene No. 5878: Unigene No. Rn.143213; for Behavior of gene caused by administration of chemical substance, Gene No. 1131: Unigene No. Rn.144946; for Behavior of gene caused by administration of chemical substance, Gene No. 1562: Unigene No. Rn.14744; for Behavior of gene caused by administration of chemical substance, Gene No. 1741: Unigene No. Rn.1647; for Behavior of gene caused by administration of chemical substance, Gene No. 893: Unigene No. Rn.164817; for Behavior of gene caused by administration of chemical substance, Gene No. 6026: Unigene No. Rn.167685; for Behavior of gene caused by administration of chemical substance, Gene No. 154: Unigene No. Rn.185941; for Behavior of gene caused by administration of chemical substance, Gene No. 1993: Unigene No. Rn.18728; for Behavior of gene caused by administration of chemical substance, Gene No. 813: Unigene No. Rn.201760; for Behavior of gene caused by administration of chemical substance, Gene No. 2494: Unigene No. Rn.23969; for Behavior of gene caused by administration of chemical substance, Gene No. 2546: Unigene No. Rn.24561; for Behavior of gene caused by administration of chemical substance, Gene No. 3776: Unigene No. Rn.43232; for Behavior of gene caused by administration of chemical substance, Gene No. 3929: Unigene No. Rn.4620; for Behavior of gene caused by administration of chemical substance, Gene No. 1119: Unigene No. Rn.9757; for Behavior of gene caused by administration of chemical substance, Gene No. 6742: Unigene No. Rn.9779; for Behavior of gene caused by administration of chemical substance, Gene No. 5634: Unigene No. Rn.9862; for Behavior of gene caused by administration of chemical substance, Gene No. 5726: gene group (D), Unigene No. Rn.9939
Outline: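 Liver mRNA levels were compared with matched vehicle groups, with a shift of at least 1.5-fold up or down deemed significant unless its direction disagreed with other carcinogens. Test substances were dosed orally by gavage daily for 28 days to 5-week-old male F344 rats, four per group.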

liver = conditions: cited from earlier work
rodent = conditions: classification of the substance (C+/C−); cited from earlier work
[2] = classification of the substance (M+/M−); cited from earlier work

## O=C(OC[C@H]1O[C@@H](OC(=O)c2cc(O)c(O)c(OC(=O)c3cc(O)c(O)c(O)c3)c2)[C@H](OC(=O)c2cc(O)c(O)c(OC(=O)c3cc(O)c(O)c(O)c3)c2)[C@@H](OC(=O)c2cc(O)c(O)c(OC(=O)c3cc(O)c(O)c(O)c3)c2)[C@@H]1OC(=O)c1cc(O)c(O)c(OC(=O)c2cc(O)c(O)c(O)c2)c1)c1cc(O)c(O)c(OC(=O)c2cc(O)c(O)c(O)c2)c1 [TS052, Tannic acid]
[1]
  Behavior of gene caused by administration of chemical substance, Gene No. 4846: −
  Behavior of gene caused by administration of chemical substance, Gene No. 2026: −
  Behavior of gene caused by administration of chemical substance, Gene No. 4218: −
  Behavior of gene caused by administration of chemical substance, Gene No. 6182: −
  Behavior of gene caused by administration of chemical substance, Gene No. 5600: −
  Behavior of gene caused by administration of chemical substance, Gene No. 1494: −
  Behavior of gene caused by administration of chemical substance, Gene No. 2045: −
  Behavior of gene caused by administration of chemical substance, Gene No. 2203: +
  Behavior of gene caused by administration of chemical substance, Gene No. 533: −
  Behavior of gene caused by administration of chemical substance, Gene No. 725: −
  Behavior of gene caused by administration of chemical substance, Gene No. 1163: +
  Behavior of gene caused by administration of chemical substance, Gene No. 4973: −
  Behavior of gene caused by administration of chemical substance, Gene No. 4095: −
  Behavior of gene caused by administration of chemical substance, Gene No. 1334: −
  Behavior of gene caused by administration of chemical substance, Gene No. 6620: −
  Behavior of gene caused by administration of chemical substance, Gene No. 6303: −
  Behavior of gene caused by administration of chemical substance, Gene No. 5878: −
  Behavior of gene caused by administration of chemical substance, Gene No. 1131: −
  Behavior of gene caused by administration of chemical substance, Gene No. 1562: −
  Behavior of gene caused by administration of chemical substance, Gene No. 1741: −
  Behavior of gene caused by administration of chemical substance, Gene No. 893: −
  Behavior of gene caused by administration of chemical substance, Gene No. 6026: −
  Behavior of gene caused by administration of chemical substance, Gene No. 154: −
  Behavior of gene caused by administration of chemical substance, Gene No. 1993: −
  Behavior of gene caused by administration of chemical substance, Gene No. 813: −
  Behavior of gene caused by administration of chemical substance, Gene No. 2494: −
  Behavior of gene caused by administration of chemical substance, Gene No. 2546: −
  Behavior of gene caused by administration of chemical substance, Gene No. 3776: −
  Behavior of gene caused by administration of chemical substance, Gene No. 3929: −
  Behavior of gene caused by administration of chemical substance, Gene No. 1119: −
  Behavior of gene caused by administration of chemical substance, Gene No. 6742: −
  Behavior of gene caused by administration of chemical substance, Gene No. 5634: −
  Behavior of gene caused by administration of chemical substance, Gene No. 5726: −
liver; in vivo
  Liver carcinogenicity: Cr+
rodent
  Carcinogenicity: C+
[2]
  Mutagenicity by Ames test: M−

## ClC(Cl)C(Cl)(Cl)Cl [TS055, Pentachloroethane]
[1]; mRNA vs vehicle control group
  Behavior of gene caused by administration of chemical substance, Gene No. 4846: −
  Behavior of gene caused by administration of chemical substance, Gene No. 2026: −
  Behavior of gene caused by administration of chemical substance, Gene No. 4218: −
  Behavior of gene caused by administration of chemical substance, Gene No. 6182: −
  Behavior of gene caused by administration of chemical substance, Gene No. 5600: −
  Behavior of gene caused by administration of chemical substance, Gene No. 1494: +
  Behavior of gene caused by administration of chemical substance, Gene No. 2045: −
  Behavior of gene caused by administration of chemical substance, Gene No. 2203: −
  Behavior of gene caused by administration of chemical substance, Gene No. 533: +
  Behavior of gene caused by administration of chemical substance, Gene No. 725: −
  Behavior of gene caused by administration of chemical substance, Gene No. 1163: +
  Behavior of gene caused by administration of chemical substance, Gene No. 4973: +
  Behavior of gene caused by administration of chemical substance, Gene No. 4095: +
  Behavior of gene caused by administration of chemical substance, Gene No. 1334: +
  Behavior of gene caused by administration of chemical substance, Gene No. 6620: +
  Behavior of gene caused by administration of chemical substance, Gene No. 6303: +
  Behavior of gene caused by administration of chemical substance, Gene No. 5878: +
  Behavior of gene caused by administration of chemical substance, Gene No. 1131: +
  Behavior of gene caused by administration of chemical substance, Gene No. 1562: +
  Behavior of gene caused by administration of chemical substance, Gene No. 1741: +
  Behavior of gene caused by administration of chemical substance, Gene No. 893: +
  Behavior of gene caused by administration of chemical substance, Gene No. 6026: +
  Behavior of gene caused by administration of chemical substance, Gene No. 154: +
  Behavior of gene caused by administration of chemical substance, Gene No. 1993: +
  Behavior of gene caused by administration of chemical substance, Gene No. 813: +
  Behavior of gene caused by administration of chemical substance, Gene No. 2494: +
  Behavior of gene caused by administration of chemical substance, Gene No. 2546: +
  Behavior of gene caused by administration of chemical substance, Gene No. 3776: +
  Behavior of gene caused by administration of chemical substance, Gene No. 3929: +
  Behavior of gene caused by administration of chemical substance, Gene No. 1119: +
  Behavior of gene caused by administration of chemical substance, Gene No. 6742: +
  Behavior of gene caused by administration of chemical substance, Gene No. 5634: +
  Behavior of gene caused by administration of chemical substance, Gene No. 5726: +
liver; classification of the substance (Cr+/Cr−)
  Liver carcinogenicity: Cr−
rodent
  Carcinogenicity: C+
[2]
  Mutagenicity by Ames test: M−
